The values that follow are results of earlier work, collected in patent publication EP2156182B1, “DETECTION OF AN ANALYTE IN A SAMPLE OF HEMOLYZED WHOLE BLOOD” (Roche Diagnostics GmbH, priority 2007, dated 2008).

The conditions of data set [1]: relative to cyclosporin.
For data set [2] the following is noted: therapeutic range, whole blood drug monitoring.

`C=CC[C@@H]1/C=C(\C)C[C@H](C)C[C@H](OC)[C@H]2O[C@@](O)(C(=O)C(=O)N3CCCC[C@H]3C(=O)O[C@H](/C(C)=C/[C@@H]3CC[C@@H](O)[C@H](OC)C3)[C@H](C)[C@@H](O)CC1=O)[C@H](C)C[C@@H]2OC` [Tacrolimus, tacrolimus]: in data set [1], the “times more potent than cyclosporin in vitro” value is “up to 100 times”. Moreover, the therapeutic trough concentration in data set [2] was 5 to 20 µg/L.

For the compound `CO[C@H]1C[C@@H]2CC[C@@H](C)[C@@](O)(O2)C(=O)C(=O)N2CCCC[C@H]2C(=O)O[C@H]([C@H](C)C[C@@H]2CC[C@@H](O)[C@H](OC)C2)CC(=O)[C@H](C)/C=C(\C)[C@@H](O)[C@@H](OC)C(=O)[C@H](C)C[C@H](C)/C=C/C=C/C=C/1C` [sirolimus], the therapeutic trough concentration in data set [2] was 5 to 15 µg/L.
